Data on seven compounds can be found in patent US4510323A, “Cis-bicyclo[3.3.0]octane derivatives, medicaments containing them and processes for their preparation and use” (Gruenenthal GmbH, priority 1981, dated 1985).

Experiment [1] deals with human thrombocytes. In words: Inhibition of arachidonic acid induced aggregation of human thrombocytes. As to conditions: for IC50: arachidonic acid induced aggregation of human thrombocytes; for relative activity: in comparison to prostacyclin = 1.0. In kind it is cell-based. The text has this: The aggregation of human thrombocytes induced by arachidonic acid may be prevented e.g. by prostacyclin.

The subject of experiment [2] is narcotized rats. The experiment can be described thus: ADP induced fall in platelet count in-vivo in narcotized rats, intravenous administration. Further details: species or system rat. As to conditions: urethane narcosis, 5,6-dihydroprostacyclin = 1.0.
Experiment [3] concerns the target T1, adenylate cyclase in horse thrombocytes (Equus caballus, UniProt F7CK38).
T1 construct: Gs-coupled adenylate cyclase stimulation, cAMP formation from ATP as read-out
In words: Stimulation of adenylate cyclase (c-AMP formation from ATP) in horse thrombocytes. In kind it is biochemical. The text has this: The enzyme adenylate cyclase catalyzes the formation of adenosine 3',5'-cyclic monophosphate (c-AMP) from adenosine triphosphate (ATP).
*Dose causing a threefold stimulation of the cAMP formation from ATP.

The subject of experiment [4] is conscious, spontaneous hypertensive rats. In words: Blood pressure lowering activity in conscious, spontaneous hypertensive rats. In kind it is in vivo, rat. As to conditions: intravenous; for relative activity: blood pressure lowering, conscious SHR, 5,6-dihydroprostacyclin = 1.0; for ED (20 mm Hg): Rattus norvegicus, read-out: ED20 (dose causing a drop of the diastolic blood pressure by 20 mm Hg). The text has this: Blood pressure lowering activity in conscious,
spontaneous hypertensive rats (measurement via in-
dwelling catheter, intravenous administration of the […]

The test system of experiment [5] is narcotized rats. In words: Persistence of blood pressure lowering activity after supramaximal hypotensive dose in narcotized rats. As to conditions: for half time of b.p.l.a. (blood pressure lowering activity) / rate of decay of blood pressure lowering activity: 1 mg/kg intravenous, narcotized rats (pentobarbital). Type of experiment: in vivo, rat. The protocol: On intravenous administration of a supra-
maximal hypotensive dose (1 mg/kg) of the test com-
pounds in narcotized rats (pentobarbital narcosis) the
following persistence characteristics of the blood
pressure lowering activity ("b.p.l.a.") were observed: […]

Experiment [6] concerns narcotized rats. In words: Thrombocyte aggregation inhibition after oral administration (ADP induced fall in thrombocyte count in-vivo) in narcotized rats. Further details: species or system rat. As to conditions: for % inhibition of platelet aggregation: narcotized rats (urethane). The protocol: In this experiment the product obtained in Example 2 was administered orally in a dose of 4.64 mg/kg of narcotized rats (urethane narcosis). The thrombocyte aggregation inhibiting activity was determined at 30, 60 and 150 minutes after administration of the compound (Method: ADP induced fall in thrombocyte count in-vivo, determined by a "Technicon Autocounter").

Experiment [7] deals with narcotized rats. In words: Blood pressure lowering activity in narcotized rats (pentobarbital narcosis). In kind it is in vivo, rat. As to conditions: intravenous; for ED (20 mm Hg): Rattus norvegicus, pentobarbital narcosis, read-out: ED20 (dose causing a drop of the diastolic blood pressure by 20 mm Hg); for relative activity: blood pressure lowering, prostacyclin = 1.0. From the text:
Blood pressure lowering activity in nar-
cotized rats (pentobarbital narcosis; intravenous

The test system of experiment [8] is narcotized rats. As to conditions: stated as known; cited from earlier work.
Experiment [9] has as its system platelet aggregation induced by arachidonic acid. As to conditions: in vitro, Whittle et al., page 611; cited from earlier work.
Where [10] appears, read: conscious spontaneous hypertensive rats, indwelling catheter.

A value given as a limit tells only on which side of the number the result lay.

T1 sequence (F7CK38 1-384): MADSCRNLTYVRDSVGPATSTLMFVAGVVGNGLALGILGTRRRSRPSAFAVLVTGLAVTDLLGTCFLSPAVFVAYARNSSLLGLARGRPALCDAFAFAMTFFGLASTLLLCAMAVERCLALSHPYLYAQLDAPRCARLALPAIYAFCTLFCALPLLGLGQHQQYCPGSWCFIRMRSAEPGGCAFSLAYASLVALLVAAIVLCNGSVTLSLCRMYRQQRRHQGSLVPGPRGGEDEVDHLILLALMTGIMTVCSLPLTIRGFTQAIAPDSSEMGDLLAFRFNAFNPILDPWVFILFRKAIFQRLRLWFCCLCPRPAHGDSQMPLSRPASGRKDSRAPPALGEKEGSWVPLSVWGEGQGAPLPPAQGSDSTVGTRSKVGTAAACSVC

In experiment [1], `CCCCCC(O)C=CC1C(O)CC2OC(CCCCC(=O)O)CC21` (centres unmarked) [5,6-Dihydroprostacyclin, 5,6-dihydroprostacyclin, reference compound] gave an IC50 of 180 nM. Besides, the relative activity came to 0.043 in [1]; 1.0 in experiment [2]; 1.0 in [3] (relative to 5,6-dihydroprostacyclin = 1.0, adenylate cyclase stimulation); 1.0 in experiment [4]. The “EC200% (dose causing a threefold stimulation of the cAMP formation from ATP)” value in experiment [3] came out at 15.0 µmol/L. The “ED20 (dose causing a drop of the diastolic blood pressure by 20 mm Hg)” value in [4] (setting [10]) was 5 µg/kg.

In turn, `CCCCC[C@H](O)/C=C/[C@@H]1[C@H]2CC(=Cc3cccc(C(=O)O)c3)C[C@H]2C[C@H]1O` [Compound A, 3-(m-carboxybenzylidene)-6-beta-(3'S-hydroxy-1'E-octenyl)-7-alpha-hydroxy- cis-bicyclo[3.3.0]octane, reference compound] yielded an IC50 in [1] of 120 nM. Also, the relative activity in experiment [1] turned out to be 0.065; in experiment [2], 0.1; in experiment [4], 0.003. Moreover, in experiment [3], the “EC200% (dose causing a threefold stimulation of the cAMP formation from ATP)” value amounted to 0.4 µmol/L. For the same compound, the ED (20 mm Hg) in [4] (setting [10]) stood at 1.9 mg/kg.

`O=C(O)c1cccc(C=C2C[C@H]3C[C@@H](O)[C@H](/C=C/[C@@H](O)C4CCCCC4)[C@H]3C2)c1` [Example 1e, 3EZ-(m-carboxybenzylidene)-6β-(3'S-hydroxy-3'-cyclohexyl-1'E-propenyl)-7α-hydroxy-cis-bicyclo[3.3.0]octane] returned an IC50 in experiment [1] of 80 nM. For the same compound, the relative activity amounted to 0.098 in experiment [1], 1.0 in experiment [2] and 0.068 in experiment [4]. In addition, in [3], the “EC200% (dose causing a threefold stimulation of the cAMP formation from ATP)” value came out at 0.15 µmol/L. The ED (20 mm Hg) in experiment [4] (setting [10]) came out at 0.073 mg/kg.

In [1], `O=C(O)c1cccc(/C=C2\C[C@H]3C[C@@H](O)[C@H](/C=C/[C@@H](O)C4CCCCC4)[C@H]3C2)c1` [Example 2, 3E-(m-Carboxybenzylidene)-6β-(3'S-hydroxy-3'-cyclohexyl-1'E-propenyl)-7α-hydroxy-cis-bicyclo[3.3.0]octane] registered a concentration for half-maximal inhibition (IC50) of 70 nM. Moreover, the relative activity in experiment [1] is reported as 0.11; in experiment [2], 1.0; in experiment [7], 0.03; in experiment [4], 0.053. Moreover, the “half time of b.p.l.a. (blood pressure lowering activity)” value in experiment [5] worked out at 25.96 min. Moreover, in experiment [5], the “rate of decay of blood pressure lowering activity” value worked out at 2.6 % per min. Moreover, in experiment [5] (blood pressure lowering activity, from Table 5), the “duration of action relative to prostacyclin” value is “about 5 times”. In addition, the “% inhibition of platelet aggregation” value was determined as 38% in experiment [6] (30 min after oral 4.64 mg/kg), 26% in [6] (60 min after oral 4.64 mg/kg) and 22% in [6] (150 min after oral 4.64 mg/kg). Also, in experiment [6] (oral administration), the “duration of strong thrombocyte aggregation inhibition” value was “at least 2.5 hours”. For the same compound, the ED (20 mm Hg) was 5.39 mg/kg in [7] and 0.094 mg/kg in experiment [4] (setting [10]). Besides, the “EC200% (dose causing a threefold stimulation of the cAMP formation from ATP)” value in experiment [3] was found to be 0.13 µmol/L.

As to `O=C(O)c1cccc(C=C2CC3CC(O)C(C=CC(O)C45CC6CC(CC(C6)C4)C5)C3C2)c1` (stereo not drawn) [Example 3e, 3EZ-(m-Carboxybenzylidene)-6β-[3'S-hydroxy-3'-(1"-adamantyl)-1'E-propenyl]-7α-hydroxy-cis-bicyclo[3.3.0]octane], the “EC200% (dose causing a threefold stimulation of the cAMP formation from ATP)” value in experiment [3] was 0.18 µmol/L. In addition, the ED (20 mm Hg) in experiment [4] (setting [10]) was over 1 mg/kg. The compound also had a relative activity in [4] of under 0.005.

As to `CCCCC[C@H](O)/C=C/[C@@H]1[C@H]2C/C(=C/CCCC(=O)O)O[C@H]2C[C@H]1O` [Prostacyclin, reference compound], in [1], the midpoint of inhibition, the IC50, lay at 7.8 nM. Moreover, in [5], the “half time of b.p.l.a. (blood pressure lowering activity)” value worked out at 5.89 min and the “rate of decay of blood pressure lowering activity” value was 11 % per min. In experiment [7], the ED (20 mm Hg) was found to be 0.16 mg/kg and the relative activity was determined as 1.0. The “effectiveness on oral administration” value in [8] was “ineffective”.

In the case of `CCCCC[C@H](O)/C=C/[C@@H]1[C@H]2C/C(=C/CCCC(=O)O)C[C@H]2C[C@H]1O` [carbacyclin], the “activity relative to prostacyclin as inhibitor of platelet aggregation” value in [9] is reported as 0.02 times.

The IC50 is the concentration at which inhibition is half-maximal. Read a high IC50 as lower potency.
